Experimental data: publication PMC9954146, “Anti-Leukaemic Activity of Rilpivirine Is Mediated by Aurora A Kinase Inhibition” (Cancers, 2023)

Experiments:
Assay in all cases: Kinase panel
Type in all cases: biochemical
Conditions in all cases: read-out: % Residual Activity
EphB2(h) = target: T1, EphB2(h) (Homo sapiens, UniProt P29323)
T1 construct: purchased Eurofins (KinaseProfiler)
Procedure, shortened: (§1)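 Selectivity panel (kinome-wide), rilpivirine as test compound. Readout: radiolabel incorporation. ATP = Km of the respective kinase. Ki calculated from IC50 (Cheng–Prusoff).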

CRIK(h) = target: T2, CRIK(h) (Homo sapiens, UniProt O14578)
T2 construct: purchased Eurofins (KinaseProfiler)
Procedure, shortened: as §1

TAO3(h) = target: T3, TAO3(h) (Homo sapiens, UniProt Q9H2K8)
T3 construct: purchased Eurofins (KinaseProfiler)
Procedure, shortened: as §1

CDK4/cyclinD3(h) = target: T4, CDK4/cyclinD3(h) (Homo sapiens, UniProt P11802)
T4 construct: purchased Eurofins (KinaseProfiler)
Procedure, shortened: as §1

Met(h) = target: T5, Met(h) (Homo sapiens, UniProt P08581)
T5 construct: purchased Eurofins (KinaseProfiler)
Procedure, shortened: as §1

AAK1(h) = target: T6, AAK1(h) (Homo sapiens, UniProt Q2M2I8)
T6 construct: purchased Eurofins (KinaseProfiler)
Procedure, shortened: as §1

ACTR2(h) = target: T7, ACTR2(h) (Homo sapiens, UniProt P27037)
T7 construct: purchased Eurofins (KinaseProfiler)
Procedure, shortened: as §1

ZIPK(h) = target: T8, ZIPK(h) (Homo sapiens, UniProt O43293)
T8 construct: purchased Eurofins (KinaseProfiler)
Procedure, shortened: as §1

[1] = target: PI3 Kinase (p110a/p85a)(h) (Homo sapiens, UniProt P42336)
Procedure, shortened: as §1

CK1γ2(h) = target: T9, CK1γ2(h) (Homo sapiens, UniProt P78368)
T9 construct: purchased Eurofins (KinaseProfiler)
Procedure, shortened: as §1

Rsk1(r) = target: T10, Rsk1(r) (Rattus norvegicus, UniProt Q63531)
T10 construct: purchased Eurofins (KinaseProfiler)
Procedure, shortened: as §1

FGFR1(h) = target: T11, FGFR1(h) (Homo sapiens, UniProt P11362)
T11 construct: purchased Eurofins (KinaseProfiler)
Procedure, shortened: as §1

JAK2(h) = target: T12, JAK2(h) (Homo sapiens, UniProt O60674)
T12 construct: purchased Eurofins (KinaseProfiler)
Procedure, shortened: as §1

ASK1(h) = target: T13, ASK1(h) (Homo sapiens, UniProt Q99683)
T13 construct: purchased Eurofins (KinaseProfiler)
Procedure, shortened: as §1

PKG1α(h) = target: T14, PKG1α(h) (Homo sapiens, UniProt Q13976)
T14 construct: purchased Eurofins (KinaseProfiler)
Procedure, shortened: as §1

Tec(h) activated = target: T15, Tec(h) activated (Homo sapiens, UniProt P42680)
T15 construct: purchased Eurofins (KinaseProfiler)
Procedure, shortened: as §1

IKKβ(h) = target: T16, IKKβ(h) (Homo sapiens, UniProt O14920)
T16 construct: purchased Eurofins (KinaseProfiler)
Procedure, shortened: as §1

LTK(h) = target: T17, LTK(h) (Homo sapiens, UniProt P29376)
T17 construct: purchased Eurofins (KinaseProfiler)
Procedure, shortened: as §1

PDGFRα(h) = target: T18, PDGFRα(h) (Homo sapiens, UniProt P16234)
T18 construct: purchased Eurofins (KinaseProfiler)
Procedure, shortened: as §1

Lyn(m) = target: T19, Lyn(m) (Mus musculus, UniProt P25911)
T19 construct: purchased Eurofins (KinaseProfiler)
Procedure, shortened: as §1

[2] = target: T20, PI3 Kinase (p110a(E545K)/p85a)(m) (Mus musculus, UniProt P42337, E545K)
T20 construct: purchased Eurofins (KinaseProfiler)
Procedure, shortened: as §1

Plk3(h) = target: T21, Plk3(h) (Homo sapiens, UniProt Q9H4B4)
T21 construct: purchased Eurofins (KinaseProfiler)
Procedure, shortened: as §1

BIKe(h) = target: T22, BIKe(h) (Homo sapiens, UniProt Q9NSY1)
T22 construct: purchased Eurofins (KinaseProfiler)
Procedure, shortened: as §1

EGFR(T790M,L858R)(h) = target: T23, EGFR(T790M,L858R)(h) (Homo sapiens, UniProt P00533, L858R/T790M)
T23 construct: purchased Eurofins (KinaseProfiler)
Procedure, shortened: as §1

CaMKIV(h) = target: T24, CaMKIV(h) (Homo sapiens, UniProt Q16566)
T24 construct: purchased Eurofins (KinaseProfiler)
Procedure, shortened: as §1

LIMK1(h) = target: T25, LIMK1(h) (Homo sapiens, UniProt P53667)
T25 construct: purchased Eurofins (KinaseProfiler)
Procedure, shortened: as §1

KDR(h) = target: T26, KDR(h) (Homo sapiens, UniProt P35968)
T26 construct: purchased Eurofins (KinaseProfiler)
Procedure, shortened: as §1

ErbB4(h) = target: T27, ErbB4(h) (Homo sapiens, UniProt Q15303)
T27 construct: purchased Eurofins (KinaseProfiler)
Procedure, shortened: as §1

CDK5/p35(h) = target: T28, CDK5/p35(h) (Homo sapiens, UniProt Q00535)
T28 construct: purchased Eurofins (KinaseProfiler)
Procedure, shortened: as §1

ULK1(h) = target: T29, ULK1(h) (Homo sapiens, UniProt O75385)
T29 construct: purchased Eurofins (KinaseProfiler)
Procedure, shortened: as §1

CK1δ(h) = target: T30, CK1δ(h) (Homo sapiens, UniProt P48730)
T30 construct: purchased Eurofins (KinaseProfiler)
Procedure, shortened: as §1

CDKL4(h) = target: T31, CDKL4(h) (Homo sapiens, UniProt Q5MAI5)
T31 construct: purchased Eurofins (KinaseProfiler)
Procedure, shortened: as §1

Arg(m) = target: T32, Arg(m) (Mus musculus, UniProt Q4JIM5)
T32 construct: purchased Eurofins (KinaseProfiler)
Procedure, shortened: as §1

[3] = target: T33, PI3 Kinase (p110b/p85a)(h) (Homo sapiens, UniProt P42338)
T33 construct: purchased Eurofins (KinaseProfiler)
Procedure, shortened: as §1

Met(Y1248H)(h) = target: T34, Met(Y1248H)(h) (Homo sapiens, UniProt P08581, Y1230H)
T34 construct: purchased Eurofins (KinaseProfiler)
Procedure, shortened: as §1

Wee1(h) = target: T35, Wee1(h) (Homo sapiens, UniProt P30291)
T35 construct: purchased Eurofins (KinaseProfiler)
Procedure, shortened: as §1

IRAK4(h) = target: T36, IRAK4(h) (Homo sapiens, UniProt Q9NWZ3)
T36 construct: purchased Eurofins (KinaseProfiler)
Procedure, shortened: as §1

CDK17/cyclinY(h) = target: T37, CDK17/cyclinY(h) (Homo sapiens, UniProt Q00537)
T37 construct: purchased Eurofins (KinaseProfiler)
Procedure, shortened: as §1

T5 sequence (P08581 25-1390): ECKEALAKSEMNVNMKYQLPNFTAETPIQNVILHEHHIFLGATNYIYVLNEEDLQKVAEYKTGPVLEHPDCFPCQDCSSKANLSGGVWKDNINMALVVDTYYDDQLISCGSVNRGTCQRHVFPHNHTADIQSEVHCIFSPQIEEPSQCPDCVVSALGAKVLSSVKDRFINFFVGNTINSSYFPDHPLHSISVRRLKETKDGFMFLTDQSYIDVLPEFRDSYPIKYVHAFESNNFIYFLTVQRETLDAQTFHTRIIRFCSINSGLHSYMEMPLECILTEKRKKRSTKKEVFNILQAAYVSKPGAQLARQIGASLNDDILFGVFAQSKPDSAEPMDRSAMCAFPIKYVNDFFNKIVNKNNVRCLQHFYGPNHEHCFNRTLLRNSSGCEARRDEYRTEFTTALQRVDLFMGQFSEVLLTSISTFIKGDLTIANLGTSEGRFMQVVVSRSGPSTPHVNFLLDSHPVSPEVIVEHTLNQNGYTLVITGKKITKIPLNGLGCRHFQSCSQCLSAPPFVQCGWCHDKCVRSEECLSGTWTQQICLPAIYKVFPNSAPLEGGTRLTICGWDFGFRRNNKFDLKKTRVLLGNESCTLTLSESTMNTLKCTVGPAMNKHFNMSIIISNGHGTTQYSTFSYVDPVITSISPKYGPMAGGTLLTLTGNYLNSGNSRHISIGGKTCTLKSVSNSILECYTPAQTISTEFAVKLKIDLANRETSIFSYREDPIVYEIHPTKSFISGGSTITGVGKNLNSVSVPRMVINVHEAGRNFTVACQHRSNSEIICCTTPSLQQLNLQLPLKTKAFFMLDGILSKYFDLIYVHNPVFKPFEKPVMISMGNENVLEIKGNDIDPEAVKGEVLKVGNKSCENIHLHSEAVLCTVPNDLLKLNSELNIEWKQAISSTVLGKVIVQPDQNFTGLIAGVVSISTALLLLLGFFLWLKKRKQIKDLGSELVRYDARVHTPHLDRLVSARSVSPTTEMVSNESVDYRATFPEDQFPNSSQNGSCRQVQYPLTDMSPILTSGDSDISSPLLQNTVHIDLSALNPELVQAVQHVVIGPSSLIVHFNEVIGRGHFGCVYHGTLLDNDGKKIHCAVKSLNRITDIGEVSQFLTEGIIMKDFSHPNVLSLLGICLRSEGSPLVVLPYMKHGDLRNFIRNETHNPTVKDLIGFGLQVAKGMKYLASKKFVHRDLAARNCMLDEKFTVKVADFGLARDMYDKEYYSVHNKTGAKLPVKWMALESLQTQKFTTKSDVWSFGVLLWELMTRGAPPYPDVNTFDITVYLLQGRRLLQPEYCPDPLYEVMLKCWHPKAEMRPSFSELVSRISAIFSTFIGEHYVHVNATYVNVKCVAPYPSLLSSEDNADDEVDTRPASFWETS
T10 sequence (Q63531 whole entry): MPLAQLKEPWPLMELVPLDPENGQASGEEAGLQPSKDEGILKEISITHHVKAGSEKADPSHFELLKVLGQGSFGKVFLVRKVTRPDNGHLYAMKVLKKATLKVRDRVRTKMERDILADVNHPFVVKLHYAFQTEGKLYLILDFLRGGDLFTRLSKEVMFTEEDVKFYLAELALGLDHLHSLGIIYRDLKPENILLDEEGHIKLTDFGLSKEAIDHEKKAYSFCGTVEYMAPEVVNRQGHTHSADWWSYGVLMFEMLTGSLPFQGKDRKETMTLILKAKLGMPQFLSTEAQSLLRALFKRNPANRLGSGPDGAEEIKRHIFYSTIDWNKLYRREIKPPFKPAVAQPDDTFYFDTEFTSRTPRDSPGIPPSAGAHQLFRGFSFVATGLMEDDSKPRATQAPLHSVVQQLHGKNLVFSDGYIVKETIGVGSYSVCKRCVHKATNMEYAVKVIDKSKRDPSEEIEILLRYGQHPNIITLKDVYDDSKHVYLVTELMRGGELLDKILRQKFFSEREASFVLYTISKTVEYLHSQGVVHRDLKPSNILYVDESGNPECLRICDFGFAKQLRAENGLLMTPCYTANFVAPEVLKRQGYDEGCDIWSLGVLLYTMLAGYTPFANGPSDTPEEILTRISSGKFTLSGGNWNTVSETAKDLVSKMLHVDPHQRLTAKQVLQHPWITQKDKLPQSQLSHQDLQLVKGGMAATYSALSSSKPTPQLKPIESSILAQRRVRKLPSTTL
T15 sequence (P42680 whole entry): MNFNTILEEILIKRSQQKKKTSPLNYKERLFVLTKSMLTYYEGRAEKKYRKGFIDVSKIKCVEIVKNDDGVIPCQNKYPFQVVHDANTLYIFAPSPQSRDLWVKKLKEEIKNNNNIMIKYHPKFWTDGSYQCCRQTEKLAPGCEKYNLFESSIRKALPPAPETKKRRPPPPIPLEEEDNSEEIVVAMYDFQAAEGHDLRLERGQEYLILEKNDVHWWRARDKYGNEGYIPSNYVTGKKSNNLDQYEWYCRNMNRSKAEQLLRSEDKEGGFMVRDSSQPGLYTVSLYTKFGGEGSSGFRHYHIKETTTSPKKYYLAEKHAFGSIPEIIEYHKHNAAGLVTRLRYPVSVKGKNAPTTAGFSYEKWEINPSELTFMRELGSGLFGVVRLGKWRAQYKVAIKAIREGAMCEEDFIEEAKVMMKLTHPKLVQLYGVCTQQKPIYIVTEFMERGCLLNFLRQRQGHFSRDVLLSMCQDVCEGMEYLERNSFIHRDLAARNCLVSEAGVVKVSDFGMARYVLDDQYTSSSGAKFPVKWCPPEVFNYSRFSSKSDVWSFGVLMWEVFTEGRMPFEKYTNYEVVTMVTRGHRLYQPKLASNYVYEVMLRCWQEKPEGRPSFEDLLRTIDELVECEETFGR
T26 sequence (P35968 20-1356): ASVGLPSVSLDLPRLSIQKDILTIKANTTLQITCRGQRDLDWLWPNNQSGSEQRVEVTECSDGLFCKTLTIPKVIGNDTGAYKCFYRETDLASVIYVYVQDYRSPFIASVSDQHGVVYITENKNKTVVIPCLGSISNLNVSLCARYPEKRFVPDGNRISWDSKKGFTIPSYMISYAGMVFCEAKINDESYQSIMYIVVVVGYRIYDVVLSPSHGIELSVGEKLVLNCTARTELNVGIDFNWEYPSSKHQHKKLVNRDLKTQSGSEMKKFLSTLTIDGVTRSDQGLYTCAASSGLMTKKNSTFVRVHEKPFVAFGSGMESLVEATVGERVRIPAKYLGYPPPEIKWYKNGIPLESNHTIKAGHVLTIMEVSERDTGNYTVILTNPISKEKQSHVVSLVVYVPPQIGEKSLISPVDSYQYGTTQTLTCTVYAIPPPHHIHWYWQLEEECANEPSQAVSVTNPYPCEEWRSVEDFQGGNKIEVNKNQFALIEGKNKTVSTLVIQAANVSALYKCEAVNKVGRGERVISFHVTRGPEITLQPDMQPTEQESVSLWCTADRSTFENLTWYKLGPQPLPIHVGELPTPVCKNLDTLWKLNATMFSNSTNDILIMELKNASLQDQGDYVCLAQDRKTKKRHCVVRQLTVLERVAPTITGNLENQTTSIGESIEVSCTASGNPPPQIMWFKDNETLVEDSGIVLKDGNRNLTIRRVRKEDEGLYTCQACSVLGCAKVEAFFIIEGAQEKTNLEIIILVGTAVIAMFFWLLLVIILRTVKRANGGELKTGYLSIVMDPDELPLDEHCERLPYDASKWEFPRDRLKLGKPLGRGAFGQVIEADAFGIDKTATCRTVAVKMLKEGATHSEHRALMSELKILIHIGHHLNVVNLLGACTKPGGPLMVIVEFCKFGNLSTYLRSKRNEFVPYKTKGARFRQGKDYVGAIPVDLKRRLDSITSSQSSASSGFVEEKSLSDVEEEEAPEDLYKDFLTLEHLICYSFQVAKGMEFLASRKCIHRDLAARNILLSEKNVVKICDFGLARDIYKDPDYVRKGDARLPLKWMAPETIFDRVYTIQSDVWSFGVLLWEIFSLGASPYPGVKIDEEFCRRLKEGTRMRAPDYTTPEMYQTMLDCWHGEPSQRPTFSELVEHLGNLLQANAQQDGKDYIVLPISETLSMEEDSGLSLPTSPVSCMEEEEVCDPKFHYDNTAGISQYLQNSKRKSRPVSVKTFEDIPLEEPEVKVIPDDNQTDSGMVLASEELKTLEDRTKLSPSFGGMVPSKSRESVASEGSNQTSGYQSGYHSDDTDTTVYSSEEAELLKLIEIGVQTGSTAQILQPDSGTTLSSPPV
T17 sequence (P29376 17-864): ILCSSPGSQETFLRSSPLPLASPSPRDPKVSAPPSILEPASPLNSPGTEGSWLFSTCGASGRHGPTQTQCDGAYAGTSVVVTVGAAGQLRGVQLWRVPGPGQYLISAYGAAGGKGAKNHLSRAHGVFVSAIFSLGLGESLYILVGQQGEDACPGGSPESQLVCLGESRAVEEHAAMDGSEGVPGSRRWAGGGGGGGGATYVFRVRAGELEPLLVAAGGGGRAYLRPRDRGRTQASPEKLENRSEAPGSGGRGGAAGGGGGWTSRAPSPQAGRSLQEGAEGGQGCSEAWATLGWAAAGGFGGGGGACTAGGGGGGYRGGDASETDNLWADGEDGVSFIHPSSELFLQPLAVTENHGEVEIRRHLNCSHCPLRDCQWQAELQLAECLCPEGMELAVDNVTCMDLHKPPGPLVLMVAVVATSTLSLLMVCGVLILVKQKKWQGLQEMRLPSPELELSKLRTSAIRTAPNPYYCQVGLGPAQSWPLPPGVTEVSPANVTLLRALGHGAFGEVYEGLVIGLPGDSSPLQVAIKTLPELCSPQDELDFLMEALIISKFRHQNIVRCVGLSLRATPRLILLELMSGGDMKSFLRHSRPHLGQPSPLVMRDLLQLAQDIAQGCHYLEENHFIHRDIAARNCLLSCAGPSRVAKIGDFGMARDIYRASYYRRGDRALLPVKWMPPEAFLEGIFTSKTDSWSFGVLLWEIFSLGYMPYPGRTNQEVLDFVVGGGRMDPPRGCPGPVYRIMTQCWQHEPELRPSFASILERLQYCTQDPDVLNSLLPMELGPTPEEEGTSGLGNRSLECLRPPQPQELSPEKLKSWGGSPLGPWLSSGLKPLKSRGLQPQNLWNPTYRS

Work on `Cc1cc(/C=C/C#N)cc(C)c1Nc1ccnc(Nc2ccc(C#N)cc2)n1` [rilpivirine, (E)-4-((4-((4-(2-cyanoethenyl)-2,6-dimethylphenyl)amino)pyrimidin-2-yl)amino)benzonitrile] yielded a remaining activity at 1 µM (EphB2(h)) of 78%, a remaining activity at 1 µM (CRIK(h)) of 107% and a remaining activity at 1 µM (TAO3(h)) of 65%. It also gave a remaining activity at 1 µM (CDK4/cyclinD3(h)) of 101%, a remaining activity at 1 µM (Met(h)) of 80% and a remaining activity at 1 µM (AAK1(h)) of 87%. For the same molecule, the remaining activity at 1 µM (ACTR2(h)) was 91%, the remaining activity at 1 µM (ZIPK(h)) was 85% and the remaining activity at 1 µM [1] was 98%. For the same molecule, the remaining activity at 1 µM (CK1γ2(h)) was 90%, the remaining activity at 1 µM (Rsk1(r)) was 90% and the remaining activity at 1 µM (FGFR1(h)) was 94%. The remaining activity at 1 µM (JAK2(h)) was 72%, the remaining activity at 1 µM (ASK1(h)) was 92% and the remaining activity at 1 µM (PKG1α(h)) was 88%. For the same molecule, the remaining activity at 1 µM (Tec(h) activated) was 105%, the remaining activity at 1 µM (IKKβ(h)) was 95% and the remaining activity at 1 µM (LTK(h)) was 78%. The remaining activity at 1 µM (PDGFRα(h)) was 96%, the remaining activity at 1 µM (Lyn(m)) was 25% and the remaining activity at 1 µM [2] was 97%. It also gave a remaining activity at 1 µM (Plk3(h)) of 99%, a remaining activity at 1 µM (BIKe(h)) of 56% and a remaining activity at 1 µM (EGFR(T790M,L858R)(h)) of 88%. The remaining activity at 1 µM (CaMKIV(h)) was 81%, the remaining activity at 1 µM (LIMK1(h)) was 47% and the remaining activity at 1 µM (KDR(h)) was 85%. For the same molecule, the remaining activity at 1 µM (ErbB4(h)) was 88%, the remaining activity at 1 µM (CDK5/p35(h)) was 97% and the remaining activity at 1 µM (ULK1(h)) was 85%. It also gave a remaining activity at 1 µM (CK1δ(h)) of 99%, a remaining activity at 1 µM (CDKL4(h)) of 74% and a remaining activity at 1 µM (Arg(m)) of 48%. It also gave a remaining activity at 1 µM [3] of 104%, a remaining activity at 1 µM (Met(Y1248H)(h)) of 98% and a remaining activity at 1 µM (Wee1(h)) of 90%. The remaining activity at 1 µM (IRAK4(h)) was 80% and the remaining activity at 1 µM (CDK17/cyclinY(h)) was 78%.
